Results reported in BindingDB's records for patent US11104664 (Yangtze River Pharmaceutical Group Co., 2021).

Target: Histone-lysine N-methyltransferase EZH2 [Y641F] (Homo sapiens, UniProt Q15910, Y641F)
Assay: In Vitro Methyltransferase Activity Assay
Description: Recombinant PRC2 (EZH2-Y641F) was purchased from Active motif, S-adenosyl-methionine (SAM) and Poly-L-lysine (PLL) were purchased from Sigma-Aldrich, and H3(1-50)K27me1 peptide was purchased from Cisbio. LANCEUltrasystem (Perkinelmer) was used for detection system. In the enzyme activity test, compounds to be tested were diluted by 8 gradient points in a ratio of 1:3, and added into each well in a reaction plate, and 100 ng recombinase was added, followed by a buffer [20 mM Tris pH8.5, 2 mM MgCl2, 0.01% Tween-20, 1 mM TCEP] containing 2.5 uM SAM/250 nM H3 (1-50)K27me1 premixtures. Enzymatic reaction thus began at room temperature. After reacted for 3 hours, a detection solution premixed with PLL, detection antibody and Ulight was added, and reacted for 1 hour at room temperature. The fluorescence value was then read on a Tecan infinite pro. IC50 was calculated by fitting in a four-factor model in the XLfit software.

Chain of Histone-lysine N-methyltransferase EZH2 [Y641F] (Q15910 whole entry Y641F): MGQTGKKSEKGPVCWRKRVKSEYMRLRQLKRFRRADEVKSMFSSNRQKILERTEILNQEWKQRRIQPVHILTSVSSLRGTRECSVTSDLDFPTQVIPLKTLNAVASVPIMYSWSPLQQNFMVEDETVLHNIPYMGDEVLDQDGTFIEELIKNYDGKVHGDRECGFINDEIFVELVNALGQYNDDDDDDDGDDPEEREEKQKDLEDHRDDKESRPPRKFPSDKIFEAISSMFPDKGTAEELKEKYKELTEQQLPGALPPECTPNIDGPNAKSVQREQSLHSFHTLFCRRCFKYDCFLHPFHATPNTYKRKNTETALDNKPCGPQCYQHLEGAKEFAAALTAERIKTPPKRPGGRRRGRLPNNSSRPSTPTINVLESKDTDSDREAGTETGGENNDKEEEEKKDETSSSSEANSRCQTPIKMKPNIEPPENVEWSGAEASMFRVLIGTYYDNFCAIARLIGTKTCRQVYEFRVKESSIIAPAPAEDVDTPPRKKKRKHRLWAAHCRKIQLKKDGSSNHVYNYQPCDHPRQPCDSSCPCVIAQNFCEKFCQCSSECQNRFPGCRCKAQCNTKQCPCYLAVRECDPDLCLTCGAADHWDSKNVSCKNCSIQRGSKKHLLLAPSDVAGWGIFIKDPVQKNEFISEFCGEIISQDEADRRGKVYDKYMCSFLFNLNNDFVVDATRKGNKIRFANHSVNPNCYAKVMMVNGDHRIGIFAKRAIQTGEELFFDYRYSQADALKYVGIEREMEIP

IC50: 12 nM
SMILES: CCN(c1c(C)c(C(=O)NCc2c(C)cc(C)[nH]c2=O)cc2c1cnn2C)C1CCOCC1 [US11104664, Compound P-7]
